From a melting point compilation (Tetko et al.; mined from patent text by program, amines drawn as free bases though some values may be those of a salt)

Compound	melting point
COc1cc(Br)c(O)c([N+](=O)[O-])c1	116 to 118 °C
CN(Cc1ccc(NC(=O)C2=Cc3cc(-c4ccc(OC(F)(F)F)cc4)ccc3OCC2)cc1)C1CCOCC1	187 to 188 °C
C=CC[C@@H](C(=O)N[C@H](C(=O)N[C@H](C)c1ccccc1)C(C)(C)C)[C@@H]1OC(C)(C)OC1=O	178 to 180 °C
CCC(Oc1c(Br)cc(-c2ccc(-c3c(Cc4ccccc4)oc4ccccc34)cc2)cc1Br)C(=O)O (configuration not stated)	79 to 80 °C
C=CCc1cc(C(=O)OCC)ccc1O	67 to 70 °C
Cc1cc(C(C)(C)CO)c(Cl)nn1	151 to 153 °C
CCCC1(C)C(C#N)C(=O)NC(=O)C1C#N (configuration not stated)	204 to 205 °C
COc1ccc2c(c1)/C(=C/C#N)CC2	95 to 96 °C
CCSC(=O)OCOC(=O)c1ccco1	37.2 to 38.4 °C
Oc1ccc(-c2nn(-c3ccc(Br)cc3)c3c(C(F)(F)F)cccc23)cc1	176 to 177 °C
O=C1OC(=O)c2c(Cl)cc(Cl)cc21	90 to 94 °C
Cc1cc(S)n2nc(S(=O)(=O)O)nc2n1	254 to 256 °C
CCCCC(CC)n1nnc2c(Nc3c(Br)cc(OC)cc3OC)nc(C)cc21 (configuration not stated)	127 to 128 °C
COc1cc2c(cc1CCNC(=O)c1cc(OC)c(OC)c(OC)c1)CCC2	144 to 145 °C
CC(C)CN1N=Cc2cc(S(N)(=O)=O)sc2S1(=O)=O	130 to 132 °C
CS(=O)(=O)Nc1ccc(F)c(C(=O)O)c1	203 to 205 °C
O=c1c2cccnc2c(-c2ccc(Cl)cc2)c2n1CCN2	260 to 262 °C
O=C(Nc1sc2c(c1S(=O)(=O)O)CCCC2)C1CC1	225 to 230 °C
CCOC(=O)c1c(C(=O)OCC)c(-c2ccc3c(c2)OCO3)c2c3c(ccc2c1O)OCO3	192 to 194 °C
CCCCOc1cc2c(cc1OC)C(c1ccc(OC)c(OC)c1)=NN=C(C)C2CC (configuration not stated)	147 to 150 °C
CC(=O)C1=CCC2C3CCC4CC=CCC4(C)C3CCC12C (configuration not stated)	143 to 145 °C

Compound	melting point
COC1=CC(=O)C(O)=C(CCCCCCCC2OC2CCCCCCCC2=C(O)C(=O)C=C(OC)C2=O)C1=O (configuration not stated)	134 to 136 °C
CN(C)c1ncc(-c2nc3cccc(CO)c3o2)cn1	212 to 215 °C
CC(=O)n1ccc2c1CCn1ccnc1C2=C1CCN(C)CC1	198 °C
COc1ncccc1-c1ccc(Cl)c(OC2SCC(O)C(O)C2O)c1 (configuration not stated)	119 °C
COC(=O)c1ccc(OCC(O)c2ccc3c(c2)C(C)(C)CCS3)cc1O (configuration not stated)	113 to 115 °C
CCOC(=O)c1cc2c(C)noc2nc1C(=O)OCC	95 to 99 °C
COc1cc2cc(C(=O)N3CC(CCl)c4c3cc(NC(=O)C(C)(C)c3ccccc3[N+](=O)[O-])c3ccccc43)[nH]c2c(OC)c1OC (configuration not stated)	139 to 143 °C
CCCCCCCCCCCCC(=O)c1noc(CCCCCCCCCCCC)c1[N+](=O)[O-]	60 to 62 °C
Clc1ccc(C2CCN(CCCOc3ccc4c(c3)CNCCC4)CC2)cc1	97 to 99 °C
S=C(NCCc1ccccc1Cl)Nc1ccccn1	116 to 122 °C
O=C1CC(=C[N+](=O)[O-])Nc2ccc(Cl)cc2N1c1ccccc1	248 to 251 °C
CC(C)Oc1ccc(CCCO)c(Oc2ncc(C(F)(F)F)cc2Cl)c1	72 to 73 °C
CCCCCCCCCCC(O)CNCCCCCCNCC(O)CCCCCCCCCC (configuration not stated)	124 to 128 °C
CC(Cc1ccc(C2OC(N)=NC2=O)cc1)NCC(O)c1cccc(C(F)(F)F)c1 (configuration not stated)	152 to 164 °C
CC(=O)N[C@@H](CO)C(=O)NCc1ccccc1	147 to 148 °C
CC1(C)CC(=O)C(c2ccc(N)cc2Cl)C(=O)C1	218 to 219 °C
Cc1c(C)c(N2CCN(c3ccc(S(C)(=O)=O)cc3)CC2)c(C)c2c1OC(C)C2 (configuration not stated)	228 to 233 °C
CCN(CC)CCNC(=O)c1c2cc(I)ccc2nc2ccc(I)cc12	209 to 211 °C
COc1cc(N2C(=O)C3(CC3)[C@@H](O)[C@@H]2C)ccc1C#N	167 to 169 °C
CC(C)(C)c1nc(C=CC(COc2ccccc2)=NO)nc(C(C)(C)C)c1O	130 to 135 °C
N#Cc1cn2c(nc1=O)CCCCC2	205 to 206 °C

Compound	melting point
COc1ccc(CCNc2nc(Cl)c3nc(-c4ccco4)oc3n2)cc1	170 to 171 °C
COc1ccccc1Cc1n[nH]c2c1c(=O)n(-c1cccc(OC(F)(F)F)c1)c1ncccc21	243 to 245 °C
COc1ccc(Nc2ccnc3nc(C)c(OC(=O)COC(C)=O)cc23)cc1	213 to 216 °C
CCn1cc(C(=O)O)c(=O)c2cc(F)c(N3CCN(S(=O)(=O)c4ccc(F)cc4)CC3)c(F)c21	243 to 244 °C
COc1ccc2nccc(C(=O)CC[C@@H]3CCN(CC#Cc4cc(F)cc(F)c4F)C[C@@H]3C(=O)O)c2c1	70 °C
Cc1cc(O)ccc1-n1cc(C(=O)O)c(=O)cc1C1CCC(N(C)C)CC1 (configuration not stated)	207 to 215 °C
O=C(c1cc2cc([N+](=O)[O-])ccc2o1)C12CC3CC(CC(C3)C1)C2	151 to 153 °C
CCc1c(C(=O)C(N)=O)c2c([N+](=O)[O-])cccc2n1Cc1ccccc1	207 to 208 °C
O=C(NC12CC3CC(CC(C3)C1)C2)c1nc(Br)n(-c2ccccc2)c1Br	228 to 231 °C
Cc1ncc2n1-c1ccc(Br)cc1C(c1ccccn1)=NC2	189 to 190 °C
CCN(CC)c1cccc(N(CC)CC)c1C(=O)O	112 to 114 °C
CCCCCCCCCCC/C=C\c1c[nH]c(C(=O)OC)c1	51 to 52 °C
COCOC1=C(C(=O)OC)CC(C#N)(c2ccc(OC)c(OCC3CC3)c2)CC1 (configuration not stated)	98 to 99 °C
CC(C)CC(=O)Nc1cccc(-c2ccnc3c(-c4cccc(C(F)(F)F)c4)cnn23)c1	170 to 173 °C
CC(=O)c1c(-c2ccc(Cl)cc2)c(-c2ccc(Cl)cc2)nn(CCC2OC(CO)C(O)C(O)C2O)c1=O (configuration not stated)	96 to 122 °C
O=C(NO)c1cnc(N2CCC(CNS(=O)(=O)c3ccc(C(=O)Nc4ccc(Cl)c(-c5ccccn5)c4)c(Cl)c3)CC2)nc1	172 to 173 °C
Cc1cccc(Cl)c1C(=O)N[C@@H](Cc1ccc(-c2c(C(F)(F)F)n(C)c(=O)n(C)c2=O)cc1)C(=O)O	243 to 247 °C
COc1cc(-c2ncc(S(C)=O)cc2Cl)c(F)cc1Cl (configuration not stated)	117 to 118 °C
COC(=N)N1CCC(c2nn(C)c3cc(F)ccc23)CC1	132 to 135 °C

Second part, the molecule after the results:

melting point	Compound
191 to 192 °C	O=C(c1ccc(Cl)cc1)N1CCc2cc(S(=O)(=O)N3CCN(c4cccc(Cl)c4)CC3)ccc21
148 to 150 °C	O=c1[nH]c(-n2cccn2)nc2ccccc12
339 to 341 °C	O=C(O)CN1C(=O)c2cccc3c(Sc4ccccc4C(=O)O)ccc(c23)C1=O
162 to 163 °C	O=C(O)CCCN(C(=O)c1ccccc1O)C(c1ccccc1)c1ccccc1
80 to 81 °C	CCOC(=O)c1c2c3c(cccc3n1C)CCC2
79 to 82 °C	CCCCCCOC(Cc1ccc(OCCc2nc(-c3ccccc3)oc2C)c2ccsc12)C(=O)O (configuration not stated)
114 °C	O=C1c2ccccc2C(=O)N1C1CC=CCC1 (configuration not stated)
134 to 136 °C	CCOC(=O)c1cn(C2CC2)c2c(F)c(NCC(O)COC(=O)c3ccccc3)c(F)cc2c1=O (configuration not stated)
210 to 211 °C	NC(=O)N1C(=O)Cc2cc(C(=O)c3ccccc3)ccc21
254 to 256 °C	COc1ccc(Cn2c(=O)[nH]c3ccc([N+](=O)[O-])cc3c2=O)cc1
120 to 123 °C	COc1cc(C=C[N+](=O)[O-])ccc1OCc1cccc2ccccc12
135 to 136 °C	Fc1ccc(-c2nc(=S)n(Cc3ccccc3)[nH]2)c(Cl)c1
110 to 114 °C	O=C(C(=CO)c1ccccc1)c1ccccc1
152 to 153 °C	CC(C)Cc1cc(OCc2ccccc2)c2c(c1)OC(C)(C)CC2C(=O)O (configuration not stated)
112 to 114 °C	CS(=O)(=O)n1cc(-c2ccccc2)c(=O)n1-c1ccccn1
157 to 158 °C	CN1C(=O)CC2(CC(=O)N(Cc3ccccc3)C2)C1=O (configuration not stated)
222 to 226 °C	Cc1cc(-c2ccc(S(C)=O)cc2)n(-c2ccc(S(N)(=O)=O)cc2)c1 (configuration not stated)
139 to 141 °C	CN1CC(=O)N(C(c2ccccc2)c2ccccc2)C1=S

melting point	Compound
142 °C	Cn1cc(-c2ccccc2)c(=O)c(-c2ccc(Cl)cc2)c1
121 to 123 °C	CCCCCNC(=O)[C@H](Cc1ccc(OCC(=O)O)c(-c2nn[nH]n2)c1)NC(=O)[C@H](Cc1ccccc1)NC(=O)OC(C)(C)C
120 to 122 °C	CC(C)C[C@H](NC(=O)OCc1ccccc1)C(=O)N[C@@H](Cc1ccccc1)C(=O)O
60 °C	O=Cc1nn(-c2ccccc2)c2c1CCCC2
134 to 138 °C	CCc1n[nH]c(C(N)=O)c1NC(=O)c1cc(S(C)(=O)=O)ccc1OCc1ccccn1
246 to 248 °C	Cc1cc2ncc(C(=O)O)c(N(C)S(=O)(=O)c3ccc(Oc4ccncc4)cc3)n2n1
144 to 145 °C	O=C(O)CCCC#CCc1c(-c2ccccc2)nc(-c2ccccc2)n1-c1ccccc1
98 to 100 °C	CC(C)c1oc(-c2ccccc2)c(-c2ccc(F)cc2)c1C=CC=O
140 °C	CN(C)c1ncc(C(=O)N2CCOC(c3cccc(O)c3)C2)c(-c2ccccc2)n1 (configuration not stated)
58 to 61 °C	NCCn1c(-c2ccc(Br)cc2)csc1=Nc1ccccc1
74 to 75 °C	CCCCOc1nc2cccc(C(=O)OC)c2n1Cc1ccc(-c2ccccc2C#N)cc1
90 to 92 °C	CCCCOC(=O)CNC(=O)c1nc2ccc(OC)cc2cc1OCc1ccccc1
170 °C	CC1(C)Oc2ccc([N+](=O)[O-])cc2C(n2ccccc2=O)=C1CNC=O
155 to 160 °C	CC1CCC(=O)N1c1ccnc(NC(=O)NCc2ccccn2)c1 (configuration not stated)
207 °C	O=[N+]([O-])c1ccc(Oc2c(Cl)cc(C(F)(F)F)cc2Cl)cc1SCc1ccccc1
56 °C	O=S(c1ccccc1)c1cccnc1 (configuration not stated)
148 °C	O=C1[C@H]2CCC[C@H]2Nc2ccccc2N1Cc1ccc2ccccc2c1 (relative stereo)
132 °C	CCCOc1c(-c2ccccc2)n[nH]c1-c1ccccc1
